The subject of assay [1] is aromatization (estrogen synthesis). As to the kind of experiment: Estrogen synthesis inhibition in rats (uterine weight and ovarian steroid levels). The format is in vivo, rat (immature female Wistar). The note with it: 7 days; for Mean Uterine Weight: testosterone propionate-treated rats; for Mean Steroid Concentration, estrone / Mean Steroid Concentration, estriol / Mean Steroid Concentration, estradiol: ovaries; for Mean Steroid Concentration, estrone: testosterone-treated control 0.19; for Mean Steroid Concentration, estriol: testosterone-treated control 0.53; for Mean Steroid Concentration, estradiol: testosterone-treated control 0.55.

The target in another assay is T1, aromatase (Rattus norvegicus, UniProt P22443).
T1 sequence (P22443 1-508): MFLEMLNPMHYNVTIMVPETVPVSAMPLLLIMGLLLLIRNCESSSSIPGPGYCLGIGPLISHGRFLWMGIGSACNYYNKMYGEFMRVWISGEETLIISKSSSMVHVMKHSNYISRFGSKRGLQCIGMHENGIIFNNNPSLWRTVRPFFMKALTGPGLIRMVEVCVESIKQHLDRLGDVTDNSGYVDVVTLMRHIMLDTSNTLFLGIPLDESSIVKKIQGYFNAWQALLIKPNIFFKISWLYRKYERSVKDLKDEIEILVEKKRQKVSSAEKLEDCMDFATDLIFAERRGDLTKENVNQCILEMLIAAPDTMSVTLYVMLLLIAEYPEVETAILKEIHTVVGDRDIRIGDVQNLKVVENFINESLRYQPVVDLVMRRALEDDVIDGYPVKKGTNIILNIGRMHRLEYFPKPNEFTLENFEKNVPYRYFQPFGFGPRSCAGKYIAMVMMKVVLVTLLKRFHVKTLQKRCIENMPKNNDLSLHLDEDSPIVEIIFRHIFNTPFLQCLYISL
As to the kind of experiment: biochemical.

For another assay, the system named is breast cancer. As to conditions: known aromatase inhibitors; Cancer Research, Vol. 42, Suppl. 8:3261s (1982); cited from earlier work.
Where [2] appears, read: 30 ppm in feed (approx. 3 mg/kg/day).
The mark [3] stands for this setting: 300 ppm in feed (approx. 30 mg/kg/day).
The mark [4] stands for this setting: rat ovarian microsomes, substrate (androstenedione) concentration 0.1 μM.

Here are results for 14 compounds from US4659730A, “Aromatase inhibiting imidazole derivatives” (Eli Lilly and Company, priority 1984, dated 1987).

For orientation: EC50 means the concentration needed to bring the measured effect to its halfway point. Low readings indicate a more potent agent, high ones a less potent agent.

Molecules are shown by their SMILES. Counter-ions that a name gives are not always drawn. Like-named read-outs stand apart in the source and are kept apart here.

Procedure for aromatase: In this test system, ovarian microsomes are obtained from rats treated with pregnant mares serum gonadotropin. Test compounds are added to reaction vials containing 0.1 μM 4-androstene-3,17-dione, 100,000 dpm 1,2[^3 H]-androstenedione, the microsomes and a NADPH generating system. The concentrations of the inhibitors tested ranged between 0.005 and 10 μM.

For `Clc1cc2c(cc1Cl)C(n1ccnc1)CC2.O=[N+]([O-])O` (stereo not drawn), in assay [1] (30 ppm in feed (approx. 3 mg/kg/day), 4 animals, testosterone-treated control 140.8), the “Mean Uterine Weight” value is 152.5 mg. Besides, the “Mean Uterine Weight” value in assay [1] (300 ppm in feed (approx. 30 mg/kg/day), 5 animals, significantly different from testosterone-treated control (140.8), p < 0.05) is 103.2 mg. In addition, in assay [1] (setting [2]), the “Mean Steroid Concentration, estrone” value is reported as 0.21 femtomoles per milligram of protein; the “Mean Steroid Concentration, estriol” value was 0.46 femtomoles per milligram of protein; the “Mean Steroid Concentration, estradiol” value is 0.71 femtomoles per milligram of protein. In addition, in assay [1] (setting [3]), the “Mean Steroid Concentration, estrone” value is 0.17 femtomoles per milligram of protein; the “Mean Steroid Concentration, estriol” value is 0.49 femtomoles per milligram of protein; the “Mean Steroid Concentration, estradiol” value was 0.35 femtomoles per milligram of protein.

In the case of `c1ccc2c(c1)OCCC2n1ccnc1` (stereo not drawn) [1-(3,4-dihydro-2H-1-benzopyran-4-yl)-1H-imidazole hydrochloride], at aromatase (setting [4]), a half-maximal effect (EC50) was put at 2800 nM. Take `Clc1cccc2c1CCC2n1ccnc1` (stereo not drawn) [1-(4-chloro-2,3-dihydro-1H--inden-1-yl)-1H--imidazole nitrate]: the EC50 at aromatase (setting [4]) was determined as 680 nM. Still for that read-out and setting: with `Clc1ccc2c(c1)C(n1ccnc1)CCC2` (stereo not drawn) [1-(7-chloro-1,2,3,4-tetrahydro-1-naphthalenyl)-1H--imidazole nitrate] the figure was 100 nM. On to `CCC1(c2ccc(N)cc2)CCC(=O)NC1=O` (stereo not drawn) [aminoglutethimide], for which the “effect in treatment of breast cancer” value with breast cancer is recorded as “beneficial effect in treatment of breast cancer”.

On to `COc1ccc(OC)c2c1CCC2n1ccnc1` (stereo not drawn) [nitrate], for which the EC50 on aromatase was determined as 870 nM. Still for that read-out and setting: with `COc1ccc2c(c1)C(n1ccnc1)CCC2` (stereo not drawn) [nitrate] the figure was 450 nM. Same read-out and setting: with `COc1cccc2c1CCCC2n1ccnc1` (stereo not drawn) [nitrate] the figure was 250 nM.

Consider `Clc1cc(Cl)c2c(c1)C(n1ccnc1)CC2` (stereo not drawn) [nitrate], for which, on aromatase, it took 115 nM to reach a half-maximal effect (EC50). Compared with the last compound, the EC50 is about 2.2-fold lower. On the same count and under the same terms, under `Clc1cc2c(cc1Cl)C(n1ccnc1)CC2.O=[N+]([O-])O` (stereo not drawn) [nitrate] stands 78 nM; under `c1ccc2c(c1)CCC2n1ccnc1` (stereo not drawn) [nitrate], 810 nM; under `c1ccc2c(c1)CCCC2n1ccnc1` (stereo not drawn) [nitrate], 520 nM. On aromatase, `c1ccc2c(c1)SCCC2n1ccnc1` (stereo not drawn) [nitrate] gave an EC50 of 1020 nM. For `C[C@]12C=CC(=O)C=C1CC[C@@H]1[C@@H]2CC[C@]2(C)OC(=O)CC[C@@H]12` [testolactone], the “effect in treatment of breast cancer” value in the assay with breast cancer was “beneficial effect in treatment of breast cancer”.
